From ChEMBL document CHEMBL1201862, “PubChem BioAssay data set” (2004)
Active and inactive are the calls of the source.

Key:
[1] = biological target: T1, Mannose-6-phosphate isomerase (Homo sapiens, UniProt P34949); test: PMI enzyme inhibitors, confirmation, biochemical, fluorescence intensity (AID 1535)
T1 sequence (P34949 whole entry): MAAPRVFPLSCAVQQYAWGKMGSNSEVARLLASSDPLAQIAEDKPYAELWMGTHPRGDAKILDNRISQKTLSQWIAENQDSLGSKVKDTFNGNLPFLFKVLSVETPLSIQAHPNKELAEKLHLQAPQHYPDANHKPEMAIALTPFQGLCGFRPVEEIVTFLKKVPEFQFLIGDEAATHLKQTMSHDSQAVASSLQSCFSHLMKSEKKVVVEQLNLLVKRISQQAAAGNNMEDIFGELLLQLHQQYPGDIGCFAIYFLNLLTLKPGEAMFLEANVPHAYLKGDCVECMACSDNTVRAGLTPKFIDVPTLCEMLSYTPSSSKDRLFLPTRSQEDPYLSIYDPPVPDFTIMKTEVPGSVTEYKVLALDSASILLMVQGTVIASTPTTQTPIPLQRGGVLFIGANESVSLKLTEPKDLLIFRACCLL

Phosphomannomutase 2 = Phosphomannomutase 2 (Homo sapiens, UniProt O15305); test: Counter screen SAR assay for PMM2 inhibitors via a fluorescence intensity assay. [Related pubchem assays (depositor defined):AID1545, AID1574]
Phosphomannomutase 2, sequence (O15305 whole entry): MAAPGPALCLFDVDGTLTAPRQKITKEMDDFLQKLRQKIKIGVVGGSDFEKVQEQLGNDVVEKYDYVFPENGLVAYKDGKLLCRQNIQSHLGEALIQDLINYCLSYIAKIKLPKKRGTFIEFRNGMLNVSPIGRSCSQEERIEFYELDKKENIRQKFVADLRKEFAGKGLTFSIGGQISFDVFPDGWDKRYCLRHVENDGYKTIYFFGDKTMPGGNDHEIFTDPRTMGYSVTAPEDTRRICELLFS

[2] = biological target: T2, Intestinal-type alkaline phosphatase (Homo sapiens, UniProt P09923); test: human intestinal alkaline phosphatase activators, dose response, biochemical, luminescence, uHTS hits (AID 463120); format: functional
T2 sequence (P09923 whole entry): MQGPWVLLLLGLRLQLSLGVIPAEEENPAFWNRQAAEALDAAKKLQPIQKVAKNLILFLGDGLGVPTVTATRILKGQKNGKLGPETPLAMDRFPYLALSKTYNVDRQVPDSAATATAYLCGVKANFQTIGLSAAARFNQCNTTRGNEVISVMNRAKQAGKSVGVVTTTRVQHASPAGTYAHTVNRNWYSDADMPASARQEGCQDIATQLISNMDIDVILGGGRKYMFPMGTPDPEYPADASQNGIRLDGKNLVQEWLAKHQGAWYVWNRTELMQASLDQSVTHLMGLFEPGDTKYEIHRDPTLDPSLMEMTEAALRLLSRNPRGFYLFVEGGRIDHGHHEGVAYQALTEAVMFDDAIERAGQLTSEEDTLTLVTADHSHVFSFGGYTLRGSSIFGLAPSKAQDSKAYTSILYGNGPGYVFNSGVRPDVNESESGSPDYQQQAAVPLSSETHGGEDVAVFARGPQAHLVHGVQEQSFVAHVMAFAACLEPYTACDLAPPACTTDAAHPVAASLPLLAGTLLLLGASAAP

[3] = biological target: T2, Intestinal-type alkaline phosphatase; test: human IAP activators, dose response, biochemical, luminescent, uHTS hits, set 2 (AID 488817); format: functional;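 further: potency of activators that raise enzyme activity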
[4] = biological target: T3, Alkaline phosphatase, tissue-nonspecific isozyme (Homo sapiens, UniProt P05186); test: TNAP enzyme activators, dose response, selectivity assay for human IAP activator project, biochemical, TNAP isozyme, human IAP uHTS hits (AID 488886); format: functional;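 further: potency of compounds raising TNAP activity as a selectivity check on IAP activators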
T3 sequence (P05186 whole entry): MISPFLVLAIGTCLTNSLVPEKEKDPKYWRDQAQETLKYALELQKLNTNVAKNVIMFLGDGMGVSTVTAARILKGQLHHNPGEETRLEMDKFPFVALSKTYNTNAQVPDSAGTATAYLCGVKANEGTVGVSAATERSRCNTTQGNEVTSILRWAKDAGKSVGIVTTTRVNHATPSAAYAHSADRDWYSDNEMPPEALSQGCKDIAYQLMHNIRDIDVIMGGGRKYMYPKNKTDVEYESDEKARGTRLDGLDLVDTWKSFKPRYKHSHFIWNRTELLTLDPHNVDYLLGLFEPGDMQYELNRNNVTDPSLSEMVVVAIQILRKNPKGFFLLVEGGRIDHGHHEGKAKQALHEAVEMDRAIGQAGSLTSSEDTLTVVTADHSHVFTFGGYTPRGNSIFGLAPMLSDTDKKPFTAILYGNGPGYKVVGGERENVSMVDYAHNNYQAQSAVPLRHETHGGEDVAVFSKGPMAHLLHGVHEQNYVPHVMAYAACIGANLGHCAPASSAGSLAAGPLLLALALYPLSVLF

[5] = biological target: Intestinal-type alkaline phosphatase (Mus musculus, UniProt P24822); test: PubChem AID 488875; format: functional
Intestinal-type alkaline phosphatase (Mus musculus, UniProt P24822), sequence (P24822 whole entry): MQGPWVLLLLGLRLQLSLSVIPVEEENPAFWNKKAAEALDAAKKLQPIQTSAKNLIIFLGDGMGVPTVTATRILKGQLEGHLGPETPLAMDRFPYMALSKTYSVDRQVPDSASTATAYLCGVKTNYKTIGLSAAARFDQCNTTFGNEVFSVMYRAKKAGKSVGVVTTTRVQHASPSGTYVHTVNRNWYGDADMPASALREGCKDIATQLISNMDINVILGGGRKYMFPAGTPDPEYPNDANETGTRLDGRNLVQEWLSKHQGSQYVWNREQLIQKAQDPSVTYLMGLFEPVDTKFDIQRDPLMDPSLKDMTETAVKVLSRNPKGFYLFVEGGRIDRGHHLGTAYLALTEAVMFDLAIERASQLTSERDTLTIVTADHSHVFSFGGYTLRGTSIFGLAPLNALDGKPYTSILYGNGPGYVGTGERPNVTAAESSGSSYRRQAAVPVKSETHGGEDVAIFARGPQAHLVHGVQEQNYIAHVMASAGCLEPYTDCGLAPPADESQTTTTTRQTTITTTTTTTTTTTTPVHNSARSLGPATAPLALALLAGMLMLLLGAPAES

[6] = NIH-3T3 fibroblast cytotoxicity, dose response, cytotoxicity control, cell-based, fluorescence, Alamar Blue, secondary assay (AID 2327); format: functional;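 further: NIH-3T3 mouse fibroblasts cultured with fluconazole at 8 µg/mL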
Caspase-8 = Caspase-8 (Homo sapiens, UniProt Q14790); test: caspase-8 inhibition counter-screen, dose response, selectivity assay for caspase-6 inhibitor project, biochemical, Z-IETD-R110 fluorescence, cherry-picked samples (AID 743294)
Caspase-8, sequence (Q14790 217-374 limits assumed): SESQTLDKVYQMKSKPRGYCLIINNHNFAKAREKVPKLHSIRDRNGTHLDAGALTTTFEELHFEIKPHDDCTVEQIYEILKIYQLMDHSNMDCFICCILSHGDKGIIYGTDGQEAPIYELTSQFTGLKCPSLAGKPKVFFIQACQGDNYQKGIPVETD
Caspase-8, sequence (Q14790 385-479 limits assumed): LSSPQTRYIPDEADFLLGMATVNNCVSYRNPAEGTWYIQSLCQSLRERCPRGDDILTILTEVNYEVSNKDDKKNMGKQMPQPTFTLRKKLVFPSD

[7] = biological target: 1-phosphatidylinositol 4,5-bisphosphate phosphodiesterase gamma-1 (Homo sapiens, UniProt P19174); test: Counterscreen for inhibitors of phospholipase C isozymes (PLC-B3): Fluorescence-based biochemical high throughput dose response assay to identify inhibitors of phospholipase C isozymes (PLC-gamma1).
[8] = C. albicans growth with fluconazole, confirmation, fluorescence, retest (AID 2467); format: functional, cell-based
[9] = biological target: Lysine-specific demethylase 4A (Homo sapiens, UniProt O75164); test: JMJD2A histone demethylase inhibitors, dose response, selectivity assay for GASC-1 inhibitor project, biochemical, DELFIA europium, cherry-picked samples (AID 488840)
Lysine-specific demethylase 4A, sequence (O75164 whole entry): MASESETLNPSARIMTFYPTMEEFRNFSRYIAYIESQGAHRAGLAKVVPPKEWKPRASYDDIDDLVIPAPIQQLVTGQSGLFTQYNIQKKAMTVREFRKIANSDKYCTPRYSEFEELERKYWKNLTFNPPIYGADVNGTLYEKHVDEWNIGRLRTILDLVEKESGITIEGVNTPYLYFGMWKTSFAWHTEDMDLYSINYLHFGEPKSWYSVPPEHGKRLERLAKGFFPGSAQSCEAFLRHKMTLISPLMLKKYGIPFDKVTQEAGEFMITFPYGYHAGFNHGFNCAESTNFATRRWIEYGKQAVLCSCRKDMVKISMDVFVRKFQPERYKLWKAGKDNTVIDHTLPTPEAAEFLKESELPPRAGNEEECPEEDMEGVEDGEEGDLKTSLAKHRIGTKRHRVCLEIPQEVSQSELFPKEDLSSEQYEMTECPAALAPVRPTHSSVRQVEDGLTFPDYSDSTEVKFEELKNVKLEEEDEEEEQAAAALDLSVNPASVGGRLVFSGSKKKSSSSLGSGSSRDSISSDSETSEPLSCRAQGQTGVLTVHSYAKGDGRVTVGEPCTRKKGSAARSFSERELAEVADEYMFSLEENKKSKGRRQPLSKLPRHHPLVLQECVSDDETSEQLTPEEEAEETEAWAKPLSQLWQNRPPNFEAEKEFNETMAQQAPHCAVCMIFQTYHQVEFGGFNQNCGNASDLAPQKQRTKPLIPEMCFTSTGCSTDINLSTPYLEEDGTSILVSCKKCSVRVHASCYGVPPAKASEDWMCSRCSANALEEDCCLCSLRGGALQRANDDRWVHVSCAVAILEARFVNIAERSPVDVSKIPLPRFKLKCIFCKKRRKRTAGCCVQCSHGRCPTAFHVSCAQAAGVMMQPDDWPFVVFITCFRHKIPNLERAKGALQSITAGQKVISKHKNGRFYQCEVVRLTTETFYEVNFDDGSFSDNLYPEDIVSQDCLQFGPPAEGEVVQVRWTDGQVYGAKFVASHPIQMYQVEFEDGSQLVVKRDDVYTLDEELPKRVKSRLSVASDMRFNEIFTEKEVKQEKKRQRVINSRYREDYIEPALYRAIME

Vero = Vero cell cytotoxicity, cytotoxicity control for flavivirus capping enzyme inhibitors (AID 588742); format: functional; settings: Chlorocebus sabaeus
Caspase-9 = Caspase-9 (Homo sapiens, UniProt P55211); test: caspase-9 enzyme inhibition, dose response, selectivity assay for caspase-6 inhibitor project, biochemical, fluorescence, plate reader, cherry-picked samples (AID 743293)
[10] = tested on: Streptococcus sp. 'group A'; test: growth inhibition of control SK(-) GAS strain, dose response, counter-screen for streptokinase expression inhibitor project, luminescence, kanamycin, BacTiterGlo, confirmation (AID 1900); format: functional, organism-based
Caspase-3 = biological target: T4, Caspase-3 (Homo sapiens, UniProt P42574); test: caspase-3 enzyme inhibitors, selectivity check, dose response, selectivity assay for caspase-6 allosteric inhibitor project, biochemical, fluorescence, cherry-picked samples (AID 743291)
T4 sequence (P42574 whole entry): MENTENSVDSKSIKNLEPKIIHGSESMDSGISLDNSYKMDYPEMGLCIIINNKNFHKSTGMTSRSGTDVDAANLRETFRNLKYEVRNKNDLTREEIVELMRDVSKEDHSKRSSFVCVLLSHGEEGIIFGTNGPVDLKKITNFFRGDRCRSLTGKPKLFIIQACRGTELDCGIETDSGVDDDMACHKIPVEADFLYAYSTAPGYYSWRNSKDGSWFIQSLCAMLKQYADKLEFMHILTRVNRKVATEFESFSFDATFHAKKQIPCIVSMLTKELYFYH

Caspase-7 = Caspase-7 (Homo sapiens, UniProt P55210); test: human caspase-7 inhibitors, dose response, selectivity assay for caspase-6 inhibitor project, biochemical, DEVD-R110 fluorescence, cherry-pick (AID 743295)
Streptococcus = test: Group A Streptococcus viability loss, dose response, counter-screen for streptokinase expression inhibitor project, luminescence, BacTiterGlo (AID 1915); format: functional, organism-based;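 further: potency for reduction of bacterial viability or growth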
[11] = biological target: 1-phosphatidylinositol 4,5-bisphosphate phosphodiesterase beta-3 (Homo sapiens, UniProt Q01970); test: Fluorescence-based biochemical high throughput dose response assay to identify inhibitors of phospholipase C isozymes (PLC-B3).
1-phosphatidylinositol 4,5-bisphosphate phosphodiesterase beta-3, sequence (Q01970 whole entry): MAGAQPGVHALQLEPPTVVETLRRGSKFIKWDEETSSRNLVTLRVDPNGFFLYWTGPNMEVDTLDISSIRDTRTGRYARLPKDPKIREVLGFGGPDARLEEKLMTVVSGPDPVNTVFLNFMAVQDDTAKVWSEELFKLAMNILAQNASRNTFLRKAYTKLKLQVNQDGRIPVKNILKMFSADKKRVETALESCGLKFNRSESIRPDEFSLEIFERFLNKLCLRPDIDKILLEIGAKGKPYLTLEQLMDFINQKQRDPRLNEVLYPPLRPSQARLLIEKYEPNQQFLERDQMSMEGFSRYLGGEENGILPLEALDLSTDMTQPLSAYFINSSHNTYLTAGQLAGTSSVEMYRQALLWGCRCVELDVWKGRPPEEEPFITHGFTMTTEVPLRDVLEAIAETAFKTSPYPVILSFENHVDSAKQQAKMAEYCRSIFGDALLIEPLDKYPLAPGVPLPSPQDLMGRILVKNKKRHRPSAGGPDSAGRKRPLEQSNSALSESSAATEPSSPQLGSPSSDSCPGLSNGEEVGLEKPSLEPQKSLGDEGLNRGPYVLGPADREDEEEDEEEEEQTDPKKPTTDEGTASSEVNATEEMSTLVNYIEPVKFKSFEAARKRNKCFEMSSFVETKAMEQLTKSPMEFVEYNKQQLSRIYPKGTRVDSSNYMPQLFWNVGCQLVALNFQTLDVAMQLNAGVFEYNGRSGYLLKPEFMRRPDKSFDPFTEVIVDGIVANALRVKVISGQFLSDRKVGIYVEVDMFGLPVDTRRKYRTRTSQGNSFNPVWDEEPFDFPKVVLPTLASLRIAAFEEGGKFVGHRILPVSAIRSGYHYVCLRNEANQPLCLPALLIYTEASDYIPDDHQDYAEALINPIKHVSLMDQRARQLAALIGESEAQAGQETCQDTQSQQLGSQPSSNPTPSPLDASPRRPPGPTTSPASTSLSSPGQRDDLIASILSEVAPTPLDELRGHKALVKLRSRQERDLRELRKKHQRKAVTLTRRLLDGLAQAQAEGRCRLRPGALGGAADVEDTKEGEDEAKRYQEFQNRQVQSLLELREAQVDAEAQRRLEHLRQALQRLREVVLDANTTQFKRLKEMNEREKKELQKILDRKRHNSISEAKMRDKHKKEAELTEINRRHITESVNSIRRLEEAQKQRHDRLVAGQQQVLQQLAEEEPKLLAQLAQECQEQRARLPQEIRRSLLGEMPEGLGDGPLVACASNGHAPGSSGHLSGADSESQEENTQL

Large T antigen = Large T antigen (Simian virus 40, UniProt P03070); format: functional, Betapolyomavirus macacae;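 further: Confirmatory-stage PubChem screen for compounds that inhibit SV40 T antigen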
Troponin, cardiac muscle = Troponin, cardiac muscle (Homo sapiens, UniProt P19429+P45379+P63316); test: inhibitors of cardiac thin filament calcium sensitivity, dose response, biochemical, fluorescence, cardiac regulated thin filaments, triplicate IC50 (AID 504742); format: protein-complex assay
[12] = biological target: RNA-editing ligase 1, mitochondrial (Trypanosoma brucei brucei, UniProt P86926); test: TbREL1 ligase inhibitors, dose response, biochemical, fluorescence, Trypanosoma brucei (AID 1117295); format: functional
[13] = biological target: Heat shock protein HSP 90-alpha (Homo sapiens, UniProt P07900); format: functional, organism-based
Caspase-6 = biological target: T5, Caspase-6 (Homo sapiens, UniProt P55212); test: human caspase-6 inhibitors, dose response, biochemical, VEID-R110 fluorescence, cherry-pick (AID 720632)
T5 sequence (P55212 whole entry): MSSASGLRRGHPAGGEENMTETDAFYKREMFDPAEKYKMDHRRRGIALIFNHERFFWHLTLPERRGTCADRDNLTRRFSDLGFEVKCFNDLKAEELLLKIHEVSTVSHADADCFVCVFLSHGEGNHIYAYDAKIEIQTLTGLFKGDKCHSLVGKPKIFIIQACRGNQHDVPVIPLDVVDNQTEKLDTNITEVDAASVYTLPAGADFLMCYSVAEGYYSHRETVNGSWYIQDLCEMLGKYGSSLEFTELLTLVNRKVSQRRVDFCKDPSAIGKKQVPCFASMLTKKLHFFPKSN

NS3 = NS3 (Hepatitis C virus, UniProt A3EZJ3); test: PubChem AID 2173; design: species or system Hepacivirus hominis
NS3, sequence (A3EZJ3 whole entry): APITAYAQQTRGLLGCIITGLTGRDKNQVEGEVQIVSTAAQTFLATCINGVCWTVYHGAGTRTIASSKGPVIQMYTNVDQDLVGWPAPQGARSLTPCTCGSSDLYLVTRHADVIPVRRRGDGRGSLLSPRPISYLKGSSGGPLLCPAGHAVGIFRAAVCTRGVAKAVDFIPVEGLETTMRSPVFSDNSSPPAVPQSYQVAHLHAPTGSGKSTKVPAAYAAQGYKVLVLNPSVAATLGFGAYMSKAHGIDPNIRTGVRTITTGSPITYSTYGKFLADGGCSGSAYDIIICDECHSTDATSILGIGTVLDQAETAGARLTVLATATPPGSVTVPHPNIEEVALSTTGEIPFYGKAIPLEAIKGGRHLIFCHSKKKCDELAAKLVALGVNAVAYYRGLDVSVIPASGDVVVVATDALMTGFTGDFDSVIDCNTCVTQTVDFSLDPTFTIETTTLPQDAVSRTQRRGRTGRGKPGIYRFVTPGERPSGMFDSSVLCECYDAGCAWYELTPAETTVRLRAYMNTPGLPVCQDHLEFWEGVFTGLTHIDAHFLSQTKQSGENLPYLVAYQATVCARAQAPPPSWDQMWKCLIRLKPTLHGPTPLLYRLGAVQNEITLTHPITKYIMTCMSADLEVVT

Streptokinase A = biological target: T6, Streptokinase A (Streptococcus pyogenes serotype M1, UniProt P10520); test: S. pyogenes streptokinase expression inhibitors, potency, dose response, plasminogen activation absorbance, OD405 (AID 1914); format: functional, Streptococcus pyogenes M1 GAS;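 further: secreted streptokinase activity via plasminogen activation per viability signal from cell pellet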
T6 sequence (P10520 whole entry): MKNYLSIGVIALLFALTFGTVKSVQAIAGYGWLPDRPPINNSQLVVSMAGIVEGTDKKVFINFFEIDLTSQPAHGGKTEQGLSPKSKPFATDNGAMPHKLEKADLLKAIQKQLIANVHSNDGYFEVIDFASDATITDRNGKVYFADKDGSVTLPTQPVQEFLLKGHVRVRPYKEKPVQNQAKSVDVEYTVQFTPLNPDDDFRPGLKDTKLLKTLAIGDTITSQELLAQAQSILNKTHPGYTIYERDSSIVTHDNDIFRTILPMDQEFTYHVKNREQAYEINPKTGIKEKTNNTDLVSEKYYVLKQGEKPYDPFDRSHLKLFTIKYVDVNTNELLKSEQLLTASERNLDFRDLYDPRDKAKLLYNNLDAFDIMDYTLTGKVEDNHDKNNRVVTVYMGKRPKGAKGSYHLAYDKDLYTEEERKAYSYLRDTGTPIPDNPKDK

[14] = biological target: Matrix metalloproteinase-14 (Homo sapiens, UniProt P50281); test: Dose Response confirmation of uHTS hits for a small molecule inhibitors of MT1-MMP activation in a fluorescence assay set 2.; format: functional
[15] = biological target: T7, Lysine-specific demethylase 4C (Homo sapiens, UniProt Q9H3R0); test: GASC-1 (JMJD2C) histone demethylase inhibitors, dose response, biochemical, DELFIA europium, cherry-picked samples (AID 488835); format: functional
T7 sequence (Q9H3R0 whole entry): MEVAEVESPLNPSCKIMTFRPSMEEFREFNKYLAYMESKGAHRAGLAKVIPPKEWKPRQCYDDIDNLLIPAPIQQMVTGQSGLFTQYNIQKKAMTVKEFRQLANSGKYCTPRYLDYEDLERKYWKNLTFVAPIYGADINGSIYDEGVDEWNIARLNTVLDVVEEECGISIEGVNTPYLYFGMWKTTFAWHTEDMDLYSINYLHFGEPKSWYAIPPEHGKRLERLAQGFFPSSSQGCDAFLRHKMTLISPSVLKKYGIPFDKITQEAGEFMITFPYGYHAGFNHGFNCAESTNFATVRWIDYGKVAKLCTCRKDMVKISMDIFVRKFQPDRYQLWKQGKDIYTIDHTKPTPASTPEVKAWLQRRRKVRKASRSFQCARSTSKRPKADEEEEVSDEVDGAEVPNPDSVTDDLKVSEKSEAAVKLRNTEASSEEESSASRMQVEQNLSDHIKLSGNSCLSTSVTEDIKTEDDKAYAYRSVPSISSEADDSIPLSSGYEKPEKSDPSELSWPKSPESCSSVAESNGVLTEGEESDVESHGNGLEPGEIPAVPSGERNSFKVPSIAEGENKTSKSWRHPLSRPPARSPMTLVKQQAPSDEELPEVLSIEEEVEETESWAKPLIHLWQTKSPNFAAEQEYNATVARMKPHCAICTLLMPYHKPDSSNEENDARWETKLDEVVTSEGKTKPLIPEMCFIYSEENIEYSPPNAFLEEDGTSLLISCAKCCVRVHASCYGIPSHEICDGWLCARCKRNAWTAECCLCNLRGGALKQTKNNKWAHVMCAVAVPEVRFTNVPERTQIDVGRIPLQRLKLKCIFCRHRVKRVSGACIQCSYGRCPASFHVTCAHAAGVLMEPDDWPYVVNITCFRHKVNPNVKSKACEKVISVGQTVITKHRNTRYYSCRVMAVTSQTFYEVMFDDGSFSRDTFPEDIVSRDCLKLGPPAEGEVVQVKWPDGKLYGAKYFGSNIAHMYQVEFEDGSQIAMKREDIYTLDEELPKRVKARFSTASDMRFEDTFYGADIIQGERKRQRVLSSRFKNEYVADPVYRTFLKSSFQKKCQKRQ

CAAX prenyl protease 2 [16] = biological target: CAAX prenyl protease 2 (Homo sapiens, UniProt Q9Y256); test: human Rce1 protease inhibitors, dose response, biochemical, yeast membranes, quenched-peptide fluorescence, cherry-pick (AID 588849)
Trypsin = Trypsin (Sus scrofa, UniProt P00761); test: porcine trypsin inhibitors, dose response, selectivity assay for Rce1 protease inhibitor project, biochemical, quenched peptide fluorescence, cherry-pick (AID 488789)
Trypsin, sequence (P00761 whole entry): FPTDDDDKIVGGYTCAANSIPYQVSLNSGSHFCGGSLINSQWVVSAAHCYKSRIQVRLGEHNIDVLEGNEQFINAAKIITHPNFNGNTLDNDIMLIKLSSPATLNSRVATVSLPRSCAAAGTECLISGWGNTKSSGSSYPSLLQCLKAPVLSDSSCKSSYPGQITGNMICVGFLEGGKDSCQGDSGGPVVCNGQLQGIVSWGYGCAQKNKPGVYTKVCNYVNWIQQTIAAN

CAAX prenyl protease 2 [17] = biological target: CAAX prenyl protease 2 (Saccharomyces cerevisiae S288c, UniProt Q03530); format: biochemical
CAAX prenyl protease 1 = CAAX prenyl protease 1 (Saccharomyces cerevisiae S288c, UniProt P47154); test: Ste24 protease inhibitors, dose response, biochemical, S. cerevisiae, plate reader, cherry-pick (AID 488815)

COc1ccc(/N=c2\ssnc2Cl)cc1OC
active: IC50 [1] 36.7 µM
inactive: IC50 (Phosphomannomutase 2) > 100 µM

COc1ccccc1CNC(=O)CN(c1ccc(C)cc1)S(=O)(=O)c1c(C)noc1C
active: EC50 [2] 86 µM | EC50 [3] 99 µM | EC50 [4] 76.2 µM | EC50 [5] 67.5 µM

O=c1cc2oc3cc(O)c(O)cc3c(-c3ccccc3[N+](=O)[O-])c-2cc1O
inactive: IC50 [7] 67.5 µM | AC50 (Caspase-9) > 70 µM | IC50 [11] > 123 µM | IC50 [12] > 96.6 µM
active: EC50 [6] 8.25 µM | AC50 (Caspase-8) 41.3 µM | EC50 [8] 1.07 µM | AC50 [9] 2.01 µM | CC50 (Vero) 12.2 µM | EC50 [10] 7.94 µM | AC50 (Caspase-3) 122 nM | AC50 (Caspase-7) 1.33 µM | EC50 (Streptococcus) 10.2 µM | IC50 (Large T antigen) 5.91 µM | IC50 (Troponin, cardiac muscle) 1.64 µM | AC50 [13] 2.9 µM | AC50 (Caspase-6) 18 nM | IC50 (NS3) 990 nM | EC50 (Streptokinase A) 11.2 µM | IC50 [14] 17.9 µM | AC50 [15] 1.97 µM

Nc1nc(N2CCN(C(=O)c3ccco3)CC2)nc2ccccc12
active: AC50 (CAAX prenyl protease 2 [16]) 8.22 µM | AC50 (Trypsin) 15.3 µM | AC50 (CAAX prenyl protease 2 [17]) 28.7 µM | AC50 (CAAX prenyl protease 1) 3.46 µM
